In patent US20200270309A1, “MALEIMIDE GROUP-MODIFIED ANGIOGENESIS INHIBITOR HM-1 AND USE THEREOF” (NANJING ANJI BIOLOGICAL TECHNOLOGY CO., LTD, priority 2017, published 2020):
Marks after values point to notes of the source that are not given here. Peptide text beside a SMILES is read from it. * marks the point of attachment. X72 = O=C1C=CC(=O)N1c1ccccc1CCCCCCCCCCC(=O)*; X55 = O=C1C=CC(=O)N1c1ccccc1CCCCCCCCC(=O)*; X63 = O=C1C=CC(=O)N1c1ccccc1CCCCCCC(=O)*; X49 = O=C1C=CC(=O)N1c1ccccc1CCCCCC(=O)*

Columns and labels:
[1] = tested on: carrageenan-induced toe swelling; experiment: Carrageenan-induced toe swelling in rats; format: in vivo; conditions: SD rats; for Swelling degree 1 h: 1 h after carrageenan; for Swelling degree 3 h: 3 h after carrageenan; for Swelling degree 5 h: 5 h after carrageenan; for Swelling degree 7 h: 7 h after carrageenan
Experimental: The rats were injected once a day, and the model group was given the same volume of normal saline for 3 d and fed normally. […] The foot swelling degree was calculated according to the following formula: foot swelling degree (mL)=foot volume after inflammation-foot volume before inflammation. The number of milliliters of overflow liquid was recorded (method: a ballpoint pen is used to circle the protruding point of the right joint as a measurement mark, and the right hind feet of each rat are sequentially placed into the volume measurer, so that the hind limbs are exposed outside the barrel, and the immersion depth is at the coincidence of the circle and the liquid level. After the foot enters the liquid, the liquid level rises, and the volume of overflow liquid is the volume of the right hind foot of the rat, and the normal volume of the right hind foot of each rat is measured in sequence).

adjuvant arthritis = experiment: Rat adjuvant arthritis (AA) animal model; format: in vivo, SD rats; conditions: 4.0 mg/kg; for Clinical score: intravenous in the tail once every five days from day 10, four paws scored 0-4, max 16, mean±SD; for Joint swelling degree / Left and right paw swelling degree: intravenous in the tail once every five days from day 10, mean±SD
[2] = Half-lives and pharmacokinetic parameters of polypeptides vs HM-1; conditions: in vivo; for half-life: T1/2β (half-life)
[3] = tested on: xylene-induced ear swelling; experiment: Xylene-induced mouse ear swelling; format: in vivo; conditions: Kunming mice, injected once a day for 5 days; for Swelling degree (mg) / Swelling degree: right minus left ear piece weight 2 h after xylene; for Inhibition rate (%): xylene-induced ear swelling
Experimental: Kunming mice were taken, a normal saline group was taken as a blank control group, an aspirin group (200 mg/kg) was taken as a positive control group, and X1-X90 administration groups were taken as test groups. The mice were injected once a day for 5 consecutive days. The blank control group was given an equal volume of normal saline. One hour after the last administration, 0.05 mL of xylene was applied to both sides of the right ear of each mouse to cause inflammation, while no drug was applied to the left ear as a normal ear. Two hours later, the mice were put to death by dislocation. Two ears were cut along the auricle. Ear pieces were taken with a puncher and weighed, and the swelling degree and the swelling rate were calculated. Swelling degree=right ear piece weight-left ear piece weight, swelling rate=(swelling degree/left ear piece weight)*100%. Statistical t-test was conducted on the experimental results. *P<0.05 indicates significant difference, and **P<0.01 indicates extremely significant difference.

splenic lymphocytes = experiment: Proliferation of splenic lymphocytes in mice (ConA, MTT); format: cell-based; conditions: ConA-stimulated mouse splenic lymphocytes, 48 h
Experimental: Spleens of mice were taken out under aseptic conditions, washed with blank 1640 culture medium 3 times, ground with a 5 mL syringe core, filtered with a 200-mesh sieve, made into a single cell suspension. The suspension was centrifuged (1000 rpm×5 min), and supernatant was removed. Red blood cells were lysed by Tris-NH4Cl, and placed in ice water bath for 4 min and centrifuged (1000 rpm×5 min). The supernatant was removed, and the cells were washed twice with sterile PBS. Finally, RPMI 1640 culture solution (5 mL) containing 10% calf serum was added to suspend the cells. The cells were counted and the cell concentration was adjusted to 5×10^6 cells/mL, and the cells were cultured in a 96-well culture plate.
Blank control group, concanavalin A (ConA) group and dexamethasone (Dex) group were set in the experiment, and polypeptide X1-X90 groups were set as test groups. After 100 μL of splenic lymphocytes suspension per well was added into each group, 100 μL of blank 1640 culture solution was added into the blank control group, ConA was added into the ConA group, Dex was added into the Dex group, and ConA was added into the test groups on the basis of adding different concentrations of polypeptides X1-X90. The cells were static cultured at 37° C. in a cell incubator for 48 h. After the cultivation was completed, 20 μL of MTT was added to each well, and the cultivation was continued for 4 h. Finally, all the solutions in each well were discarded. 100 μL DMSO was added to each well and shaken, and the OD value at 570 nm was detected with a microplate reader. Five parallel experiments were set in each well.

[4] = tested on: corneal neovascularization; experiment: Corneal neovascularization induced by alkali burn in BALB/c mice; format: in vivo; set-up: Inhibition rate (corneal neovascularization): concentration or dose not given beside the values; conditions: day 14 after alkali burn, vitreous injection once a day for 1 week

SMILES | Swelling degree 1 h ([1]; 2.0 mg/kg once a day for 3 d) | Swelling degree 3 h ([1]; 2.0 mg/kg once a day for 3 d) | Swelling degree 5 h ([1]; 2.0 mg/kg once a day for 3 d) | Swelling degree 7 h ([1]; 2.0 mg/kg once a day for 3 d) | Swelling degree 1 h ([1]; 4.0 mg/kg once a day for 3 d) | Swelling degree 3 h ([1]; 4.0 mg/kg once a day for 3 d) | Swelling degree 5 h ([1]; 4.0 mg/kg once a day for 3 d) | Swelling degree 7 h ([1]; 4.0 mg/kg once a day for 3 d) | Clinical score (adjuvant arthritis) | Joint swelling degree (adjuvant arthritis) | Left and right paw swelling degree (adjuvant arthritis) | AUC(0-inf) [2] | MRT inf [2] | clearance [2] | half-life [2] | Inhibition rate (%) ([3]; dose 2 mg/kg) | Inhibition rate (%) ([3]; dose 4 mg/kg) | Swelling degree (mg) ([3]; dose 8 mg/kg) | Inhibition rate (%) ([3]; dose 8 mg/kg) | A570 nm/A630 nm (splenic lymphocytes; polypeptide dose 0.05 μM) | also measured
C[C@H](NC(=O)CNC(=O)[C@H](CCCNC(=N)N)NC(=O)CCCCCc1ccccc1N1C(=O)C=CC1=O)C(=O)N[C@@H](CC(=O)O)C(=O)N[C@@H](CCCNC(=N)N)C(=O)N[C@@H](C)C(=O)NCC(=O)NCC(=O)NCC(=O)NCC(=O)N[C@@H](CCCNC(=N)N)C(=O)NCC(=O)N[C@@H](CC(=O)O)C(=O)O [X17] (X49-RGADRAGGGGRGD-OH) | 0.27 ± 0.15 mg | 0.32 ± 0.14 mg | 0.38 ± 0.17 mg | 0.35 ± 0.19 mg | 0.24 ± 0.12 mg | 0.31 ± 0.19 mg | 0.37 ± 0.17 mg | 0.34 ± 0.15 mg | 5.82 ± 1.05 | 0.78 ± 0.15 mm | 3.84 ± 0.88 mm | 30000 ± 7060 ng·h/mL | 53.8 ± 12.3 h | 0.555 mL/min/kg | 37.26 ± 0.29 h | 25.36% | 28.89% | 3.53 ± 0.1** mg | 43.34% | 0.6219 ± 0.0629 | Swelling degree (mg) ([3]; dose 2 mg/kg): 4.65 ± 0.79* mg; Swelling degree (mg) ([3]; dose 4 mg/kg): 4.43 ± 0.75* mg; Inhibition rate (%) (splenic lymphocytes; polypeptide dose 0.05 μM): 7.92%; A570 nm/A630 nm (splenic lymphocytes; polypeptide dose 0.1 μM): 0.5484 ± 0.1109; Inhibition rate (%) (splenic lymphocytes; polypeptide dose 0.1 μM): 18.80%; A570 nm/A630 nm (splenic lymphocytes; polypeptide dose 0.2 μM): 0.5025 ± 0.0957; Inhibition rate (%) (splenic lymphocytes; polypeptide dose 0.2 μM): 25.60%; Inhibition rate (corneal neovascularization) [4]: 48.05%; MVD (corneal microvessel density) [4]: 34.93 ± 4.725
C[C@H](NC(=O)CNC(=O)[C@H](CCCNC(=N)N)NC(=O)CCCCCCc1ccccc1N1C(=O)C=CC1=O)C(=O)N[C@@H](CC(=O)O)C(=O)N[C@@H](CCCNC(=N)N)C(=O)N[C@@H](C)C(=O)NCC(=O)NCC(=O)NCC(=O)NCC(=O)N[C@@H](CCCNC(=N)N)C(=O)NCC(=O)N[C@@H](CC(=O)O)C(=O)O [X18] (X63-RGADRAGGGGRGD-OH) | 0.23 ± 0.18 mg | 0.33 ± 0.16 mg | 0.36 ± 0.15 mg | 0.32 ± 0.13 mg | 0.24 ± 0.17 mg | 0.39 ± 0.18 mg | 0.45 ± 0.15 mg | 0.33 ± 0.12 mg | 5.67 ± 1.04 | 0.83 ± 0.15 mm | 3.81 ± 0.85 mm | 27200 ± 7310 ng·h/mL | 48.7 ± 14.1 h | 0.613 mL/min/kg | 33.75 ± 0.27 h | 13.00% | 15.25% | 4.18 ± 0.9** mg | 32.91% | 0.6041 ± 0.0524 | Swelling degree ([3]; dose 2 mg/kg): 5.42 ± 0.18 mg; Swelling degree ([3]; dose 4 mg/kg): 5.28 ± 0.46 mg; Inhibition rate (%) (splenic lymphocytes; polypeptide dose 0.05 μM): 10.56%; A570 nm/A630 nm (splenic lymphocytes; polypeptide dose 0.1 μM): 0.5571 ± 0.0554; Inhibition rate (%) (splenic lymphocytes; polypeptide dose 0.1 μM): 17.52%; A570 nm/A630 nm (splenic lymphocytes; polypeptide dose 0.2 μM): 0.4402 ± 0.0534; Inhibition rate (%) (splenic lymphocytes; polypeptide dose 0.2 μM): 34.82%; Inhibition rate (corneal neovascularization) [4]: 50.18%; MVD (corneal microvessel density) [4]: 33.50 ± 5.649
C[C@H](NC(=O)CNC(=O)[C@H](CCCNC(=N)N)NC(=O)CCCCCCCCc1ccccc1N1C(=O)C=CC1=O)C(=O)N[C@@H](CC(=O)O)C(=O)N[C@@H](CCCNC(=N)N)C(=O)N[C@@H](C)C(=O)NCC(=O)NCC(=O)NCC(=O)NCC(=O)N[C@@H](CCCNC(=N)N)C(=O)NCC(=O)N[C@@H](CC(=O)O)C(=O)O [X20] (X55-RGADRAGGGGRGD-OH) | 0.25 ± 0.18 mg | 0.34 ± 0.13 mg | 0.36 ± 0.13 mg | 0.37 ± 0.12 mg | 0.24 ± 0.15 mg | 0.34 ± 0.12 mg | 0.35 ± 0.16 mg | 0.35 ± 0.12 mg | 5.74 ± 1.11 | 0.8 ± 0.17 mm | 3.87 ± 0.95 mm | 31800 ± 8320 ng·h/mL | 57.1 ± 12.9 h | 0.523 mL/min/kg | 39.56 ± 0.28 h | 8.19% | 39.33% | 3.47 ± 0.07** mg | 44.30% | 0.5977 ± 0.1129 | Swelling degree ([3]; dose 2 mg/kg): 5.72 ± 0.01 mg; Swelling degree (mg) ([3]; dose 4 mg/kg): 3.78 ± 0.88** mg; Inhibition rate (%) (splenic lymphocytes; polypeptide dose 0.05 μM): 11.50%; A570 nm/A630 nm (splenic lymphocytes; polypeptide dose 0.1 μM): 0.5419 ± 0.0423; Inhibition rate (%) (splenic lymphocytes; polypeptide dose 0.1 μM): 19.77%; A570 nm/A630 nm (splenic lymphocytes; polypeptide dose 0.2 μM): 0.4947 ± 0.1213; Inhibition rate (%) (splenic lymphocytes; polypeptide dose 0.2 μM): 26.75%; Inhibition rate (corneal neovascularization) [4]: 44.62%; MVD (corneal microvessel density) [4]: 37.24 ± 6.113
C[C@H](NC(=O)CNC(=O)[C@H](CCCNC(=N)N)NC(=O)CCCCCCCCCCc1ccccc1N1C(=O)C=CC1=O)C(=O)N[C@@H](CC(=O)O)C(=O)N[C@@H](CCCNC(=N)N)C(=O)N[C@@H](C)C(=O)NCC(=O)NCC(=O)NCC(=O)NCC(=O)N[C@@H](CCCNC(=N)N)C(=O)NCC(=O)N[C@@H](CC(=O)O)C(=O)O [X22] (X72-RGADRAGGGGRGD-OH) | 0.24 ± 0.13 mg | 0.31 ± 0.15 mg | 0.42 ± 0.14 mg | 0.38 ± 0.18 mg | 0.23 ± 0.11 mg | 0.31 ± 0.16 mg | 0.36 ± 0.13 mg | 0.37 ± 0.13 mg | 5.67 ± 1.12 | 0.83 ± 0.14 mm | 3.92 ± 0.18 mm | 28200 ± 7980 ng·h/mL | 50.5 ± 13.6 h | 0.59 mL/min/kg | 35.03 ± 0.27 h | 24.24% | 41.09% | 3.42 ± 0.21** mg | 45.10% | 0.5694 ± 0.0561 | Swelling degree (mg) ([3]; dose 2 mg/kg): 4.72 ± 0.29* mg; Swelling degree (mg) ([3]; dose 4 mg/kg): 3.67 ± 0.77** mg; Inhibition rate (%) (splenic lymphocytes; polypeptide dose 0.05 μM): 15.69%; A570 nm/A630 nm (splenic lymphocytes; polypeptide dose 0.1 μM): 0.4603 ± 0.0873; Inhibition rate (%) (splenic lymphocytes; polypeptide dose 0.1 μM): 31.85%; A570 nm/A630 nm (splenic lymphocytes; polypeptide dose 0.2 μM): 0.4521 ± 0.1194; Inhibition rate (%) (splenic lymphocytes; polypeptide dose 0.2 μM): 33.06%; Inhibition rate (corneal neovascularization) [4]: 46.70%; MVD (corneal microvessel density) [4]: 35.84 ± 6.594
